Reference: US20230286970A1, “NOVEL OXADIAZOLE-BASED SELECTIVE HDAC6 INHIBITORS” (ITALFARMACO S.P.A., priority 2020, published 2023)

Experiments:
[1] = Stability to Phase I metabolism in human S9 liver fraction; details: after 90 minutes, 37° C.
recombinant human HDAC6 = recombinant human HDAC6 (Homo sapiens (Human), UniProt Q9UBN7); assay: Enzymatic screening, HDAC6 inhibition (fluorogenic FdL_G substrate); assay type: biochemical
In short: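 Enzyme was preincubated with compound (8 doses, triplicate, 1% DMSO) in 25 mM Tris-HCl pH 8, 130 mM NaCl, 0.05% Tween-20, 10% glycerol, with BSA. A FLUOR DE LYS-Green substrate was then added, and fluorescence was read after developer plus 2 μM TSA.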

[2] = system: α-tubulin acetylation in 697 cell line; assay: In vitro α-tubulin acetylation in 697 cell line (ELISA); assay type: cell-based; details: 16 hours, read-out: fold increase @ 1 uM TubAc (ratio of acetylated tubulin and total tubulin towards control)
Description: The in vitro α-tubulin acetylation determination was evaluated on B 697 promyelocytic cell line.
The test molecules were diluted from 20 mM stock solution in DMSO with RPMI 10% FCS+0.01% DMSO medium at 20× concentration compared to the final concentration, added to the cells (15×10^6 cells in a total volume of 30 mL in RPMI medium 10% FCS+0.01% DMSO) to obtain the final concentrations of 1000, 333, 111, 37 nM and incubated at 37° C., 5% CO2 for 16 hours.
At the end of the incubation period, 5×10^6 cells were taken from each sample, centrifuged for 5 minutes at 1100 rpm and washed in 0.9% NaCl at 4° C. The resulting pellet was lysed by treating at 4° C. for 30 minutes with 150 μl of Complete Lysis-M buffer containing protease inhibitors (Complete Lysis-M Roche+Complete Tablets, Mini Easypack, cat: 4719956001) and phosphatase inhibitor cocktails (PhosStop Easypack, Roche, cat: 4906837001), then centrifuged 10 minutes at 14,000 rpm (20817×g). 0.3 μg of supernatant (total protein extract) were diluted in 100 μl of 1×PBS and immobilized in Maxisorp F96 NUN-IMMUNO Plate (Nunc MaxiSorp flat-bottom, Nunc, cat: 442404) at room temperature overnight. Plates were washed twice with Wash Buffer (PBS1×+0.005% tween 20) and saturated for 1 hour at room temperature with 300 μL of 1×PBS containing 10% FCS. After washing twice with Wash Buffer, the plates were incubated for two hours at room temperature in the presence of anti-acetylated-α-tubulin antibody (Monoclonal Anti-acetylated-tubulin clone 6-11B-1, mouse ascites fluid, Sigma, cat: T6793), 100 μl/well diluted 1:1000 in 1×PBS containing 10% FCS) or with total anti-α-tubulin antibody (Monoclonal Anti-alpha-tubulin produced in mouse, Sigma, cat: T6074). Following washing of the pates 5 times with Wash Buffer the secondary antibody conjugated with the enzyme HRP (Goat anti-Mouse IgG, IgM, IgA (H+L), Thermo Fisher Scientific, cat: A10668), diluted 1:1000 in 1×PBS+10% FBS was added at the volume of 100 μl/well.
After washing 4 times, 100 μl/well of TMB substrate kit was added for 10 minutes at room temperature in the dark. The reaction was stopped by adding 50 μl of 2N H2SO4. The plates were read at Multiskan Spectrum spectrophotometer at a wavelength of 450 nm.
The degree of acetylation was calculated by dividing the absorbance obtained for acetylated α-tubulin by the absorbance of total tubulin.
The results of tubulin acetylation, expressed as fold increase of ratio of acetylated α-tubulin/total α-tubulin, of each sample relative to the control sample (untreated) are summarized in table 6.

[3] = Stability in human plasma; details: after 4 hours, 37° C.
Description: In order to evaluate the stability to circulating enzymes, test compounds were incubated in human and rat plasma at 37° C. in a thermostated oscillating bath. Each test compound was incubated at μM concentration (50 μM when the samples were analysed by UV/HPLC, 1 or 2 μM when the samples were analysed by LC-MS/MS) for 0, 15, 30 minutes and 1, 2 and 4 hours. The reaction was stopped placing samples on ice bath and adding acidified acetonitrile. After centrifugation (10 minutes at 14000 rpm) an aliquot of the supernatant was diluted with water, filtered with 0.45 μm regenerated cellulose syringe filters and injected in HPLC-UV or in LC-MS/MS. The percentage of the remaining amount at the various incubation times with respect to the initial amount were calculated. The half-life in plasma was also calculated.

Stability in rat plasma = details: after 4 hours, 37° C.
recombinant human HDAC1 = recombinant human HDAC1 (Homo sapiens (Human), UniProt Q13547); assay: Enzymatic screening, HDAC1 inhibition (fluorogenic FdL_G substrate); assay type: biochemical
Sequence of recombinant human HDAC1 (Q13547 whole entry): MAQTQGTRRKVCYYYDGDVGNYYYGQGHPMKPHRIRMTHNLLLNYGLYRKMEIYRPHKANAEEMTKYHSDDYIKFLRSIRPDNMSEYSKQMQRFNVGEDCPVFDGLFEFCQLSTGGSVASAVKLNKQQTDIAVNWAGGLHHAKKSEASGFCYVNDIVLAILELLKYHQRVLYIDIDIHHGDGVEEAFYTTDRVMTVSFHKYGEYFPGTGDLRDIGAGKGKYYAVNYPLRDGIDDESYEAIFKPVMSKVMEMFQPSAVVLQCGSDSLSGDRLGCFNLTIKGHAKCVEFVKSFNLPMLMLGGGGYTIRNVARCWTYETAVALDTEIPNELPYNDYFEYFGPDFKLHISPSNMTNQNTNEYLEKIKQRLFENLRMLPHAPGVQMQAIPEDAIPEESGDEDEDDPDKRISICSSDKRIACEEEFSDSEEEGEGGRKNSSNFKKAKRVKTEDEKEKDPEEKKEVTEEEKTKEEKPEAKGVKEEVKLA
In short: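 Recombinant human HDAC1 inhibition was measured fluorometrically using the FLUOR DE LYS-Green (FdL_G) substrate. Compounds at 8 doses (1% DMSO final) in Tris-HCl pH 8 buffer with NaCl, Tween-20 and glycerol were preincubated in triplicate with enzyme and 1 mg/mL BSA, then given substrate. Developer I plus 2 μM TSA was added, and fluorescence read after 25 minutes in the dark.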

[4] = Stability to Phase I metabolism in rat S9 liver fraction; details: after 90 minutes, 37° C.

Sequence of recombinant human HDAC6 (Q9UBN7 whole entry): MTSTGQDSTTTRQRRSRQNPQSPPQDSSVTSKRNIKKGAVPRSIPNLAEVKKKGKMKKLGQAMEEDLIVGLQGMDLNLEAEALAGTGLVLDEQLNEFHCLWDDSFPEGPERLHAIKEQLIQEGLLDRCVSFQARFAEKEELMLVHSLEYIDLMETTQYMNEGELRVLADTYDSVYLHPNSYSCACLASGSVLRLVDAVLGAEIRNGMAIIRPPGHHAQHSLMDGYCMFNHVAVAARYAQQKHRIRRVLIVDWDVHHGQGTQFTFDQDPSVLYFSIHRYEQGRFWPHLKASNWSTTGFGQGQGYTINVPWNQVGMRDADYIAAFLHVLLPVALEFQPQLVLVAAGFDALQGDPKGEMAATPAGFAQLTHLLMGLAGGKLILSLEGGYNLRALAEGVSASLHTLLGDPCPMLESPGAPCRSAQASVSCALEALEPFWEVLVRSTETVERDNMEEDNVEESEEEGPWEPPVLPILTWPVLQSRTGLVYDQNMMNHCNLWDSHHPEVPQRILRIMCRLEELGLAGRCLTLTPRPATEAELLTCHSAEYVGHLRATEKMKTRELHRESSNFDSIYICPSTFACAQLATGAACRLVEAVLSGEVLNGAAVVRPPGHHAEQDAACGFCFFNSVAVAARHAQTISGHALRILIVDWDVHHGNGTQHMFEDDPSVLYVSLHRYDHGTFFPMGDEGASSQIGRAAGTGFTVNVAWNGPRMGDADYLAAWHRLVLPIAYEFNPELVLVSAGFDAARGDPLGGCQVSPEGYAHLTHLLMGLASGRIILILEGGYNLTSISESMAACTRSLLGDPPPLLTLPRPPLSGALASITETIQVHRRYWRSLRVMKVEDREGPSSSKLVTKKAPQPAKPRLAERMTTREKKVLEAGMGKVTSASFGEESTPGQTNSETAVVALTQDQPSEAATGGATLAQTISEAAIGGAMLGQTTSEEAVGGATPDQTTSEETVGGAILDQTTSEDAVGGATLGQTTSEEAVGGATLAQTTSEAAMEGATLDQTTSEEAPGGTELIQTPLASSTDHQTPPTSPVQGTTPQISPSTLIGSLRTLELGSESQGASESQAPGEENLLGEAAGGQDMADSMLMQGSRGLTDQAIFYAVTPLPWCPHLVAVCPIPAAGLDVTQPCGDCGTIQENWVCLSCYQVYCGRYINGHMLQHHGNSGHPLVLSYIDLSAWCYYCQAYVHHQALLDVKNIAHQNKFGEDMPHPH

Structure (SMILES)	residual percentage in HUMAN S9 FRACTION [1]	IC50 (recombinant human HDAC6)	fold induction at 1 µM [2]	residual percentage in HUMAN PLASMA [3]	residual percentage in RAT PLASMA (Stability in rat plasma)	IC50 (recombinant human HDAC1)	residual percentage in RAT S9 FRACTION [4]
O=C1Nc2ccc(-c3cn(Cc4ccc(-c5nnc(C(F)F)o5)cn4)nn3)cc2C12CCNC2 (single isomer, unassigned) [compound 274, 5-(1-((5-(5-(difluoromethyl)-1,3,4-oxadiazol-2-yl)pyridin-2-yl)methyl)-1H-1,2,3-triazol-4-yl)spiro[indoline-3,3′-pyrrolidin]-2-one]	95%	0.011 µM	12	83%	83%	> 200 µM	97%
C[C@@H](c1ccc(-c2nnc(C(F)F)o2)cc1)n1cc(-c2cccc(NC(=O)N3CCOCC3)c2)nn1 (stereo in doubt) [compound 104, N-(3-(1-(1-(4-(5-(difluoromethyl)-1,3,4-oxadiazol-2-yl)phenyl)ethyl)-1H-1,2,3-triazol-4-yl)phenyl)morpholine-4-carboxamide]	86%	0.04 µM	15	92%	87%	> 200 µM	78%
C[C@H](c1ccc(-c2nnc(C(F)F)o2)cn1)n1cc(-c2ccc(N)nc2)nn1 [Compd. 32, (R)-5-(1-(1-(5-(5-(difluoromethyl)-1,3,4-oxadiazol-2-yl)pyridin-2-yl)ethyl)-1H-1,2,3-triazol-4-yl)pyridin-2-amine]	97%	0.014 µM	31	97%	67%	> 200 µM	91%
CN1CCN(C(=O)Nc2cccc(-c3cn(Cc4ccc(-c5nnc(C(F)F)o5)cn4)nn3)c2)CC1 [Compd. 51, N-(3-(1-((5-(5-(difluoromethyl)-1,3,4-oxadiazol-2-yl)pyridin-2-yl)methyl)-1H-1,2,3-triazol-4-yl)phenyl)-4-methylpiperazine-1-carboxamide]	90%	0.022 µM	26	90%	79%	> 200 µM	62%
Nc1ccc(-c2cn(C(CN3CCCC3)c3ccc(-c4nnc(C(F)F)o4)cc3)nn2)cn1 (stereo not drawn) [Compd. 124, 5-(1-(1-(4-(5-(difluoromethyl)-1,3,4-oxadiazol-2-yl)phenyl)-2-(pyrrolidin-1-yl)ethyl)-1H-1,2,3-triazol-4-yl)pyridin-2-amine]	91%	0.047 µM	13	94%	92%	> 200 µM	96%
CNc1ccc2cc(-c3cn(Cc4ccc(-c5nnc(C(F)F)o5)cn4)nn3)ccc2n1 [compound 34, 6-(1-((5-(5-(difluoromethyl)-1,3,4-oxadiazol-2-yl)pyridin-2-yl)methyl)-1H-1,2,3-triazol-4-yl)-N-methylquinolin-2-amine]	89%	0.015 µM	28	95%	69%	> 200 µM	83%
O=C1Nc2cc(-c3cn(Cc4ccc(-c5nnc(C(F)F)o5)cn4)nn3)ccc2NC12CCNCC2 [compound 41, 6′-(1-((5-(5-(difluoromethyl)-1,3,4-oxadiazol-2-yl)pyridin-2-yl)methyl)-1H-1,2,3-triazol-4-yl)-1′,4′-dihydro-3′H-spiro[piperidine-4,2′-quinoxalin]-3′-one]	94%	0.019 µM	4	91%	77%	123 µM	92%
NC(=O)c1cccc(-c2nnn(Cc3ccc(-c4nnc(C(F)F)o4)c(F)c3)n2)c1 [compound 89, 3-(2-(4-(5-(difluoromethyl)-1,3,4-oxadiazol-2-yl)-3-fluorobenzyl)-2H-tetrazol-5-yl)benzamide]	96%	0.034 µM	8	81%	82%	> 200 µM	98%
NC(=O)c1ccc(-c2nnn(Cc3ccc(-c4nnc(C(F)F)o4)cc3)n2)cc1 [compound 116, 4-(2-(4-(5-(difluoromethyl)-1,3,4-oxadiazol-2-yl)benzyl)-2H-tetrazol-5-yl)benzamide]	92%	0.044 µM	5	82%	75%	> 200 µM	71%
